Results as given in patent US6706740B2, “Fungicidal heterocyclic aromatic amides and their compositions, methods of use and preparation” (Dow AgroSciences LLC, priority 1999, dated 2004).
Like-named read-outs stand apart in the source and are kept apart here.

Experiments:
[1] = tested on: Magnaporthe grisea (Pyricularia oryzae—PYRIOR); assay: microbe, parasite or virus in culture; assay type: cell-based; settings: Pyricularia oryzae, read-out: PYRIOR in vitro Growth Inhibition
[2] = tested on: Rhizoctonia solani (RHIZSO); assay: microbe, parasite or virus in culture; assay type: cell-based; settings: Rhizoctonia solani, read-out: RHIZSO in vitro Growth Inhibition
[3] = tested on: Mycosphaerella graminicola (Septoria tritici—SEPTTR); assay: In vitro fungal growth inhibition, Mycosphaerella graminicola (SEPTTR); assay type: cell-based; settings: Zymoseptoria tritici, read-out: SEPTTR in vitro Growth Inhibition
[4] = tested on: Stagonospora nodorum (Leptosphaeria nodorum—LEPTNO); assay: In vitro fungal growth inhibition, Stagonospora nodorum (LEPTNO); assay type: cell-based; settings: Leptosphaeria, read-out: LEPTNO in vitro Growth Inhibition
Ustilago maydis (USTIMA) = assay: microbe, parasite or virus in culture; assay type: cell-based; settings: Mycosarcoma maydis, read-out: USTIMA in vitro Growth Inhibition
[5] = tested on: Phytophthora infestans (PHYTIN); assay: microbe, parasite or virus in culture; assay type: cell-based; settings: Phytophthora infestans, read-out: PHYTIN in vitro Growth Inhibition
[6] = tested on: Phytophthora infestans—PHYTIN; assay: whole plant or invertebrate; assay type: in vivo; settings: for pest or weed control at 100 ppm: Phytophthora, in Solanum lycopersicum, 24 h, read-out: PHYTIN in vivo 1 Day Protectant
[7] = tested on: Puccinia recondita—PUCCRT; assay: Brown Rust of Wheat, in vivo whole plant, 24 Hour Protectant; settings: for pest or weed control at 100 ppm: Puccinia, read-out: PUCCRT in vivo 1 Day Protectant
Erysiphe graminis—ERYSGT = assay: Powdery Mildew of Wheat, in vivo whole plant, 24 Hour Protectant; settings: for pest or weed control at 100 ppm: Erysiphe, read-out: ERYSGT in vivo 1 Day Protectant
Septoria tritici—SEPTTR = assay: Leaf Blotch of Wheat, in vivo whole plant, 24 Hour Protectant; settings: for pest or weed control at 100 ppm: Zymoseptoria tritici, 24 h, read-out: SEPTTR in vivo 1 Day Protectant
[8] = tested on: Leptosphaeria nodorum—LEPTNO; assay: Glume Blotch of Wheat, in vivo whole plant, 24 Hour Protectant; settings: for pest or weed control at 100 ppm: Leptosphaeria, read-out: LEPTNO in vivo 1 Day Protectant
[9] = 100 ppm spray, wheat, 24 hour protectant, % control of fungal infection vs untreated plants
[10] = wheat plants sprayed at 100 ppm, inoculated after 24 hours, control of fungal infection vs untreated plants
[11] = 100 ppm spray, 24 hour protectant, wheat, control of fungal infection vs untreated plants

| SMILES | inhibition at 25 ppm [1] [%] | inhibition at 25 ppm [2] [%] | inhibition at 25 ppm ([3]; 25 ppm in growth medium) [%] | inhibition at 25 ppm ([4]; 25 ppm in growth medium) [%] | inhibition at 25 ppm (Ustilago maydis (USTIMA)) [%] | inhibition at 25 ppm [5] [%] | pest or weed control at 100 ppm [6] [%] | melting point | inhibition at 25 ppm ([3]; 25 ppm in the growth medium) [%] | inhibition at 25 ppm ([4]; 25 ppm in the growth medium) [%] | pest or weed control at 100 ppm [7, 10] [%] | pest or weed control at 100 ppm (Erysiphe graminis—ERYSGT; [10]) [%] | pest or weed control at 100 ppm (Septoria tritici—SEPTTR; [10]) [%] | pest or weed control at 100 ppm [8, 10] [%] | further results |
| --- | --- | --- | --- | --- | --- | --- | --- | --- | --- | --- | --- | --- | --- | --- | --- |
| COCCC(=O)Oc1c(OC)ccnc1C(=O)Nc1ccc(C(=O)c2cccc(C(F)(F)F)c2)cc1 [Compound 706] | < 80 | < 80 | < 80 | > 80 | < 80 | < 80 | < 25 | 158 to 160 °C | – | – | – | – | – | – | pest or weed control at 100 ppm [7, 9]: < 25%; pest or weed control at 100 ppm (Erysiphe graminis—ERYSGT; [9]): < 25%; pest or weed control at 100 ppm (Septoria tritici—SEPTTR; [9]): 25 to 74%; pest or weed control at 100 ppm [8, 9]: 25 to 74% |
| CC(C)C(=O)O[C@H]1[C@H](C)OC(=O)[C@@H](NC(=O)c2cn(C)nc2O)COC(=O)[C@@H]1Cc1ccccc1 [Compound 558] | < 80 | < 80 | – | – | < 80 | < 80 | < 25 | 199 to 205 °C | < 80 | < 80 | 25 to 74 | < 25 | 25 to 74 | 25 to 74 | – |
| O=C(Nc1ccc(Oc2ccc(C(F)(F)F)cc2)cc1)c1ncccc1O [Compound 217] | < 80 | < 80 | < 80 | < 80 | < 80 | < 80 | < 25 | 131 to 133 °C | – | – | – | – | – | – | pest or weed control at 100 ppm [7, 11]: < 25%; pest or weed control at 100 ppm (Erysiphe graminis—ERYSGT; [11]): 25 to 74%; pest or weed control at 100 ppm (Septoria tritici—SEPTTR; [11]): < 25%; pest or weed control at 100 ppm [8, 11]: < 25% |
| CC1(C)CC(NC(=O)c2nnc(O)nc2O)CC(C)(C)C1 [Compound 543] | < 80 | < 80 | – | – | < 80 | < 80 | < 25 | 283 to 285 °C | < 80 | < 80 | < 25 | < 25 | < 25 | 25 to 74 | – |
| O=C(Oc1cccnc1C(=O)NC1CCC(OC(=O)c2ccccc2)CC1)c1ccccc1 (stereo not drawn) [Compound 567] | < 80 | < 80 | – | – | < 80 | < 80 | – | 174 to 177 °C | < 80 | < 80 | < 25 | < 25 | 25 to 74 | 25 to 74 | PHYTIN in vivo 1 Day Protectant ([6]; tomato plants sprayed at 100 ppm, inoculated after 24 hours, control of fungal infection vs untreated plants): + + |
| CC1(C)CC(NC(=O)c2cc(O)cnc2O)CC(C)(C)C1 [Compound 526] | < 80 | < 80 | – | – | < 80 | < 80 | < 25 | 320 to 327 °C | < 80 | < 80 | < 25 | < 25 | 25 to 74 | 25 to 74 | – |
| CC(C)C(=O)O[C@H]1[C@H](C)OC(=O)[C@@H](NC(=O)c2nc3ccccc3cc2O)COC(=O)[C@@H]1Cc1ccccc1 [Compound 562] | < 80 | < 80 | – | – | < 80 | < 80 | < 25 | 163 to 165 °C | < 80 | < 80 | < 25 | 25 to 74 | 25 to 74 | < 25 | – |
| Cc1ncc(C(=O)N[C@H]2COC(=O)[C@H](Cc3ccccc3)[C@@H](OC(=O)C(C)C)[C@H](C)OC2=O)c(O)n1 [Compound 542] | < 80 | < 80 | – | – | < 80 | < 80 | < 25 | 220 °C (dec.) | < 80 | < 80 | < 25 | < 25 | 25 to 74 | < 25 | – |
| COc1ccnc(C(=O)N[C@H]2COC(=O)[C@H](Cc3ccccc3)[C@@H](OC(=O)C(C)C)[C@H](C)OC2=O)c1OC(=O)C1CCC1 [Compound 604] | < 80 | < 80 | < 80 | < 80 | < 80 | < 80 | < 25 | 176 to 177 °C | – | – | – | – | – | – | PUCCRT in vivo 1 Day Protectant [7, 9]: + +; ERYSGT in vivo 1 Day Protectant (Erysiphe graminis—ERYSGT; [9]): + +; SEPTTR in vivo 1 Day Protectant (Septoria tritici—SEPTTR; [9]): + +; LEPTNO in vivo 1 Day Protectant [8, 9]: + + |
| Cc1ccnc(C(=O)N[C@H]2COC(=O)[C@H](Cc3ccccc3)[C@@H](OC(=O)C(C)C)[C@H](C)OC2=O)c1OC(=O)C(C)C [Compound 572] | < 80 | < 80 | – | – | < 80 | < 80 | < 25 | 163 to 166 °C | < 80 | < 80 | – | < 25 | 25 to 74 | 25 to 74 | PUCCRT in vivo 1 Day Protectant [7, 10]: + + |
